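Cells were grown in 96-well plates and exposed to each compound for 48 hours at five concentrations; endpoints were interpolated linearly between bracketing concentrations, or set to the highest concentration if not reached. GI50 is the concentration that inhibits growth by half. TGI: concentration producing complete growth inhibition.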
How the values were obtained:
Test in all cases: NCI tumour cell line growth inhibition, 48 h
SNB-75 CNS = tested on: SNB-75 CNS
CAKI-1 renal = tested on: CAKI-1 renal
T-47D breast = tested on: T-47D breast
NCI-H460 lung = tested on: NCI-H460 lung
NCI-H226 lung = tested on: NCI-H226 lung
CCRF-CEM leukemia = tested on: CCRF-CEM leukemia
LOX IMVI melanoma = tested on: LOX IMVI melanoma
HCT-116 colon = tested on: HCT-116 colon
NCI-H23 lung = tested on: NCI-H23 lung
A498 renal = tested on: A498 renal
SF-295 CNS = tested on: SF-295 CNS
SW-620 colon = tested on: SW-620 colon
SK-MEL-5 melanoma = tested on: SK-MEL-5 melanoma
SNB-19 CNS = tested on: SNB-19 CNS
786-0 renal = tested on: 786-0 renal
DU-145 prostate = tested on: DU-145 prostate
UACC-257 melanoma = tested on: UACC-257 melanoma
SK-MEL-28 melanoma = tested on: SK-MEL-28 melanoma
MOLT-4 leukemia = tested on: MOLT-4 leukemia
RPMI-8226 leukemia = tested on: RPMI-8226 leukemia
HT29 colon = tested on: HT29 colon
A549 NSCLC = tested on: A549 NSCLC
HS 578T breast = tested on: HS 578T breast
MCF7 breast = tested on: MCF7 breast
M14 melanoma = tested on: M14 melanoma
SK-MEL-2 melanoma = tested on: SK-MEL-2 melanoma
SN12C renal = tested on: SN12C renal
HOP-62 NSCLC = tested on: HOP-62 NSCLC
K-562 leukemia = tested on: K-562 leukemia
MDA-MB-435 = tested on: MDA-MB-435
OVCAR-8 ovarian = tested on: OVCAR-8 ovarian
BT-549 breast = tested on: BT-549 breast
COLO 205 colon = tested on: COLO 205 colon
OVCAR-3 ovarian = tested on: OVCAR-3 ovarian
UACC-62 melanoma = tested on: UACC-62 melanoma
NCI/ADR-RES ovarian = tested on: NCI/ADR-RES ovarian
IGROV1 ovarian = tested on: IGROV1 ovarian
EKVX NSCLC = tested on: EKVX NSCLC
RXF 393 renal = tested on: RXF 393 renal
SF-539 CNS = tested on: SF-539 CNS
HOP-92 NSCLC = tested on: HOP-92 NSCLC
OVCAR-4 ovarian = tested on: OVCAR-4 ovarian
PC-3 prostate = tested on: PC-3 prostate
SF-268 CNS = tested on: SF-268 CNS
HCC-2998 colon = tested on: HCC-2998 colon
HCT-15 colon = tested on: HCT-15 colon
UO-31 renal = tested on: UO-31 renal
NCI-H522 lung = tested on: NCI-H522 lung
SK-OV-3 ovarian = tested on: SK-OV-3 ovarian
U251 CNS = tested on: U251 CNS
MDA-MB-231 breast = tested on: MDA-MB-231 breast
OVCAR-5 ovarian = tested on: OVCAR-5 ovarian

For `COc1cccc(NC(=O)c2ccc(C(F)(F)F)nc2Nc2ccc(Cl)cc2C)c1`, the GI50 (SNB-75 CNS) was 12.3 µM, the TGI (SNB-75 CNS) was 25.5 µM and the GI50 (CAKI-1 renal) was 2760 nM. For the same molecule, the TGI (CAKI-1 renal) was 17.1 µM, the GI50 (T-47D breast) was 4.31 µM and the TGI (T-47D breast) was 25.1 µM. It also gave a GI50 (NCI-H460 lung) of 9.01 µM, a TGI (NCI-H460 lung) of 24.1 µM and a GI50 (NCI-H226 lung) of 14.7 µM. It also gave a TGI (NCI-H226 lung) of 34.8 µM, a GI50 (CCRF-CEM leukemia) of 11.1 µM and a TGI (CCRF-CEM leukemia) of 34.4 µM. For the same molecule, the GI50 (LOX IMVI melanoma) was 11.3 µM, the TGI (LOX IMVI melanoma) was 23.4 µM and the GI50 (HCT-116 colon) was 10.9 µM. It also gave a TGI (HCT-116 colon) of 22.9 µM, a GI50 (NCI-H23 lung) of 6.45 µM and a TGI (NCI-H23 lung) of 20 µM. For the same molecule, the GI50 (A498 renal) was 1650 nM, the TGI (A498 renal) was 11.9 µM and the GI50 (SF-295 CNS) was 12.4 µM. The TGI (SF-295 CNS) was 28.6 µM, the GI50 (SW-620 colon) was 14.5 µM and the TGI (SW-620 colon) was 28.7 µM. For the same molecule, the GI50 (SK-MEL-5 melanoma) was 14.6 µM, the TGI (SK-MEL-5 melanoma) was 27.8 µM and the GI50 (SNB-19 CNS) was 13.8 µM. The TGI (SNB-19 CNS) was 28.7 µM, the GI50 (786-0 renal) was 14.7 µM and the TGI (786-0 renal) was 31.4 µM. For the same molecule, the GI50 (DU-145 prostate) was 15 µM, the TGI (DU-145 prostate) was 28.3 µM and the GI50 (UACC-257 melanoma) was 13.4 µM. The TGI (UACC-257 melanoma) was 26.2 µM, the GI50 (SK-MEL-28 melanoma) was 15 µM and the TGI (SK-MEL-28 melanoma) was 28.8 µM. It also gave a GI50 (MOLT-4 leukemia) of 10.2 µM, a TGI (MOLT-4 leukemia) of 51 µM and a GI50 (RPMI-8226 leukemia) of 5.54 µM. For the same molecule, the TGI (RPMI-8226 leukemia) was 28.4 µM, the GI50 (HT29 colon) was 10.2 µM and the TGI (HT29 colon) was 22.1 µM. The GI50 (A549 NSCLC) was 10.6 µM, the TGI (A549 NSCLC) was 22.4 µM and the GI50 (HS 578T breast) was 6.56 µM. For the same molecule, the TGI (HS 578T breast) was 29.3 µM, the GI50 (MCF7 breast) was 7.96 µM and the TGI (MCF7 breast) was 47.7 µM. The GI50 (M14 melanoma) was 16.9 µM, the TGI (M14 melanoma) was 32.5 µM and the GI50 (SK-MEL-2 melanoma) was 10.3 µM. The TGI (SK-MEL-2 melanoma) was 21.9 µM, the GI50 (SN12C renal) was 12.4 µM and the TGI (SN12C renal) was 25.7 µM. For the same molecule, the GI50 (HOP-62 NSCLC) was 17.4 µM, the TGI (HOP-62 NSCLC) was 32.1 µM and the GI50 (K-562 leukemia) was 13.9 µM. It also gave a TGI (K-562 leukemia) of 38.8 µM, a GI50 (MDA-MB-435) of 12.1 µM and a TGI (MDA-MB-435) of 27.2 µM. It also gave a GI50 (OVCAR-8 ovarian) of 11.8 µM, a TGI (OVCAR-8 ovarian) of 24.1 µM and a GI50 (BT-549 breast) of 14.1 µM. It also gave a TGI (BT-549 breast) of 28.4 µM, a GI50 (COLO 205 colon) of 10.4 µM and a TGI (COLO 205 colon) of 25.8 µM. The GI50 (OVCAR-3 ovarian) was 4.69 µM, the TGI (OVCAR-3 ovarian) was 19.9 µM and the GI50 (UACC-62 melanoma) was 14.2 µM. It also gave a TGI (UACC-62 melanoma) of 27.2 µM, a GI50 (NCI/ADR-RES ovarian) of 5.6 µM and a TGI (NCI/ADR-RES ovarian) of 20.2 µM. It also gave a GI50 (IGROV1 ovarian) of 10.5 µM, a TGI (IGROV1 ovarian) of 22.2 µM and a GI50 (EKVX NSCLC) of 10.2 µM. The TGI (EKVX NSCLC) was 24.2 µM, the GI50 (RXF 393 renal) was 1170 nM and the TGI (RXF 393 renal) was 15.4 µM. It also gave a GI50 (SF-539 CNS) of 15.1 µM, a TGI (SF-539 CNS) of 30.5 µM and a GI50 (HOP-92 NSCLC) of 4.76 µM. It also gave a TGI (HOP-92 NSCLC) of 21.4 µM, a GI50 (OVCAR-4 ovarian) of 14.9 µM and a TGI (OVCAR-4 ovarian) of 28.6 µM. For the same molecule, the GI50 (PC-3 prostate) was 4.36 µM, the TGI (PC-3 prostate) was 17.9 µM and the GI50 (SF-268 CNS) was 13.8 µM. For the same molecule, the TGI (SF-268 CNS) was 32.6 µM, the GI50 (HCC-2998 colon) was 2900 nM and the TGI (HCC-2998 colon) was 18.7 µM. It also gave a GI50 (HCT-15 colon) of 11 µM, a TGI (HCT-15 colon) of 22.9 µM and a GI50 (UO-31 renal) of 1450 nM. For the same molecule, the TGI (UO-31 renal) was 8.29 µM, the GI50 (NCI-H522 lung) was 1280 nM and the TGI (NCI-H522 lung) was 7.18 µM. The GI50 (SK-OV-3 ovarian) was 13.4 µM, the TGI (SK-OV-3 ovarian) was 27.8 µM and the GI50 (U251 CNS) was 11.9 µM. It also gave a TGI (U251 CNS) of 24.2 µM, a GI50 (MDA-MB-231 breast) of 10.4 µM and a TGI (MDA-MB-231 breast) of 23.3 µM. The GI50 (OVCAR-5 ovarian) was 2510 nM and the TGI (OVCAR-5 ovarian) was 20 µM.

From PubChem BioAssay (NCI)
